From ChEMBL document CHEMBL1201862, “PubChem BioAssay data set” (2004)
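Step 1: Grow cells in 96-well plates. Step 2: Expose to compound for 48 hours at 5 concentrations. Step 3: Interpolate endpoints linearly; if unreached, use highest concentration. The concentration for 50% growth inhibition is given as GI50.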 Calls of active or inactive are those of the source. No stated cut-off is given here; in the data, active = GI50 up to about 1.1 µM and inactive = higher.

Experiments:
Test in all cases: growth of human tumour cells (NCI), 48 h
786-0 = test system: 786-0
A498 = test system: A498
A549 = test system: A549
ACHN = test system: ACHN
BT-549 = test system: BT-549
CAKI-1 = test system: CAKI-1
CCRF-CEM = test system: CCRF-CEM
COLO 205 = test system: COLO 205
DU-145 = test system: DU-145
EKVX = test system: EKVX
HCC 2998 = test system: HCC 2998
HCT-116 = test system: HCT-116
HCT-15 = test system: HCT-15
HL-60 = test system: HL-60
HOP-62 = test system: HOP-62
HOP-92 = test system: HOP-92
HT-29 = test system: HT-29
Hs-578T = test system: Hs-578T
IGROV-1 = test system: IGROV-1
K562 = test system: K562
KM12 = test system: KM12
LOX IMVI = test system: LOX IMVI
M14 = test system: M14
MCF7 = test system: MCF7
MDA-MB-231 = test system: MDA-MB-231
MDA-MB-435 = test system: MDA-MB-435
MDA-N = test system: MDA-N
MOLT-4 = test system: MOLT-4
Malme-3M = test system: Malme-3M
NCI-H226 = test system: NCI-H226
NCI-H23 = test system: NCI-H23
NCI-H460 = test system: NCI-H460
NCI-H522 = test system: NCI-H522
NCI/ADR-RES = test system: NCI/ADR-RES
OVCAR-3 = test system: OVCAR-3
OVCAR-4 = test system: OVCAR-4
OVCAR-5 = test system: OVCAR-5
OVCAR-8 = test system: OVCAR-8
PC-3 = test system: PC-3
RPMI-8226 = test system: RPMI-8226
SF-295 = test system: SF-295
SF-539 = test system: SF-539
SK-MEL-28 = test system: SK-MEL-28
SK-MEL-2 = test system: SK-MEL-2
SK-MEL-5 = test system: SK-MEL-5
SK-OV-3 = test system: SK-OV-3
SN12C = test system: SN12C
SNB-19 = test system: SNB-19
SR = test system: SR
SW-620 = test system: SW-620
T47D = test system: T47D
TK-10 = test system: TK-10
U-251 = test system: U-251
UACC-257 = test system: UACC-257
UACC-62 = test system: UACC-62
UO-31 = test system: UO-31
RXF 393 = test system: RXF 393
SF-268 = test system: SF-268
SNB-75 = test system: SNB-75

Measured: GI50

O=C(O)CCC(=O)Nc1ccc2c(c1)S(=O)(=O)N(CC(=O)O)C2=O
inactive: 786-0 > 100 µM | A498 > 100 µM | A549 > 100 µM | ACHN > 100 µM | BT-549 > 100 µM | CAKI-1 > 100 µM | CCRF-CEM > 100 µM | COLO 205 > 100 µM | DU-145 > 100 µM | EKVX > 100 µM | HCC 2998 > 100 µM | HCT-116 > 100 µM | HL-60 > 100 µM | HOP-62 > 100 µM | HOP-92 > 100 µM | HT-29 > 100 µM | Hs-578T > 100 µM | IGROV-1 > 100 µM | K562 > 100 µM | KM12 21.9 µM | LOX IMVI > 100 µM | M14 > 100 µM | MCF7 > 100 µM | MDA-MB-231 > 100 µM | MDA-MB-435 > 100 µM | MDA-N > 100 µM | MOLT-4 > 100 µM | Malme-3M 39.2 µM | NCI-H226 > 100 µM | NCI-H23 > 100 µM | NCI-H460 > 100 µM | NCI-H522 > 100 µM | NCI/ADR-RES > 100 µM | OVCAR-3 > 100 µM | OVCAR-4 > 100 µM | OVCAR-5 > 100 µM | OVCAR-8 > 100 µM | PC-3 > 100 µM | RPMI-8226 > 100 µM | SF-295 > 100 µM | SF-539 > 100 µM | SK-MEL-28 > 100 µM | SK-MEL-2 > 100 µM | SK-MEL-5 > 100 µM | SK-OV-3 > 100 µM | SN12C > 100 µM | SNB-19 > 100 µM | SR > 100 µM | SW-620 > 100 µM | T47D > 100 µM | TK-10 > 100 µM | U-251 > 100 µM | UACC-257 > 100 µM | UACC-62 > 100 µM | UO-31 > 100 µM
> 100 µM: HCT-15

C#CCn1c(=O)c(C)cn(/C(=C/C(=O)OCC)C(=O)OCC)c1=O
1.21 µM: HCT-15
inactive: 786-0 2.84 µM | A498 16 µM | A549 16.2 µM | ACHN 1.84 µM | BT-549 8.11 µM | CAKI-1 1.66 µM | COLO 205 2.38 µM | DU-145 10.4 µM | EKVX 5.87 µM | HCC 2998 17.8 µM | HCT-116 4.67 µM | HL-60 3.61 µM | HOP-62 15.8 µM | HOP-92 3.01 µM | HT-29 2.23 µM | Hs-578T 10.6 µM | IGROV-1 3.75 µM | K562 2.84 µM | KM12 17.4 µM | LOX IMVI 10.4 µM | M14 2.92 µM | MCF7 2.97 µM | MDA-MB-231 15.3 µM | MDA-MB-435 6.35 µM | MDA-N 15 µM | MOLT-4 3.43 µM | Malme-3M 1.59 µM | NCI-H226 2.19 µM | NCI-H23 9.57 µM | NCI-H460 1.95 µM | NCI/ADR-RES 3.91 µM | OVCAR-3 7.16 µM | OVCAR-4 6.28 µM | OVCAR-5 3.64 µM | OVCAR-8 2.49 µM | PC-3 12.6 µM | RPMI-8226 3.98 µM | SF-268 12.4 µM | SF-295 18.5 µM | SF-539 1.64 µM | SK-MEL-28 4.9 µM | SK-MEL-2 13.2 µM | SK-MEL-5 11.7 µM | SK-OV-3 21.9 µM | SN12C 8.57 µM | SNB-19 14.6 µM | SNB-75 15 µM | SR 3.5 µM | SW-620 1.67 µM | T47D 4.73 µM | TK-10 2.01 µM | U-251 9.98 µM | UACC-257 14.4 µM | UACC-62 12.2 µM | UO-31 11.3 µM
active: CCRF-CEM 1.04 µM | RXF 393 0.569 µM

Cn1c(=S)[nH]c(N)c(Cc2ccccc2)c1=O
inactive: 786-0 > 100 µM | A498 32.1 µM | A549 > 100 µM | ACHN > 100 µM | BT-549 > 100 µM | CAKI-1 > 100 µM | CCRF-CEM > 100 µM | COLO 205 > 100 µM | DU-145 > 100 µM | EKVX 92.5 µM | HCC 2998 > 100 µM | HCT-116 > 100 µM | HL-60 > 100 µM | HOP-62 > 100 µM | HOP-92 25.6 µM | HT-29 77.8 µM | Hs-578T 39 µM | IGROV-1 21.2 µM | K562 78.5 µM | KM12 66.1 µM | LOX IMVI > 100 µM | M14 > 100 µM | MCF7 > 100 µM | MDA-MB-231 > 100 µM | MDA-MB-435 > 100 µM | MDA-N > 100 µM | MOLT-4 41.8 µM | Malme-3M 78 µM | NCI-H226 44.3 µM | NCI-H23 > 100 µM | NCI-H460 > 100 µM | NCI/ADR-RES 64.4 µM | OVCAR-3 > 100 µM | OVCAR-4 > 100 µM | OVCAR-5 > 100 µM | OVCAR-8 93.8 µM | PC-3 > 100 µM | RPMI-8226 > 100 µM | RXF 393 > 100 µM | SF-268 > 100 µM | SF-295 > 100 µM | SF-539 > 100 µM | SK-MEL-28 > 100 µM | SK-MEL-2 > 100 µM | SK-MEL-5 > 100 µM | SK-OV-3 > 100 µM | SN12C > 100 µM | SNB-19 > 100 µM | SNB-75 20.3 µM | SR 67.5 µM | SW-620 > 100 µM | T47D 40.3 µM | TK-10 81.8 µM | U-251 > 100 µM | UACC-257 > 100 µM | UACC-62 40.2 µM
42.9 µM: HCT-15

COC(=O)C12CCC(C)(C)CC1C1=CCC3C4(C)CC(O)C(O)C(C)(C(=O)OC)C4CCC3(C)C1(CO)CC2 (stereo not given)
14.5 µM: HCT-15
inactive: 786-0 10.2 µM | A498 18.7 µM | A549 13.4 µM | ACHN 13.9 µM | BT-549 14.6 µM | CAKI-1 14 µM | CCRF-CEM 14.3 µM | COLO 205 15.3 µM | DU-145 15.5 µM | EKVX 18.9 µM | HCC 2998 13.9 µM | HCT-116 13.7 µM | HL-60 7.52 µM | HOP-62 17.9 µM | HOP-92 14.2 µM | HT-29 13.6 µM | Hs-578T 12.6 µM | IGROV-1 17.8 µM | K562 15.6 µM | KM12 9.38 µM | LOX IMVI 14 µM | M14 6.75 µM | MCF7 14.1 µM | MDA-MB-231 17.4 µM | MDA-MB-435 15.1 µM | MDA-N 13.3 µM | MOLT-4 8.13 µM | NCI-H226 16.9 µM | NCI-H23 15.5 µM | NCI-H460 15.7 µM | NCI-H522 14.9 µM | NCI/ADR-RES 12.9 µM | OVCAR-3 16.7 µM | OVCAR-4 13.5 µM | OVCAR-5 17.9 µM | OVCAR-8 13.6 µM | PC-3 10.3 µM | RPMI-8226 12.1 µM | RXF 393 6.68 µM | SF-268 18.5 µM | SF-295 14.7 µM | SF-539 15.7 µM | SK-MEL-2 14 µM | SK-MEL-5 16 µM | SK-OV-3 16.9 µM | SN12C 18.3 µM | SNB-19 16.6 µM | SNB-75 11.9 µM | SR 3.42 µM | SW-620 11.4 µM | T47D 10.7 µM | TK-10 19 µM | U-251 18.5 µM | UACC-257 17.2 µM | UACC-62 14.3 µM

O=C1C[C@@H](Sc2ccccc2)C2(OCCO2)[C@H]2ON3CCC[C@@H]3[C@@H]12
inactive: 786-0 2.07 µM | A498 10.9 µM | A549 10.3 µM | ACHN 3.4 µM | BT-549 6.53 µM | CAKI-1 4.42 µM | COLO 205 2.48 µM | DU-145 2.55 µM | HCC 2998 8 µM | HCT-116 1.55 µM | HL-60 1.38 µM | HOP-62 3.16 µM | HOP-92 3.89 µM | HT-29 1.17 µM | Hs-578T 2.77 µM | IGROV-1 2.24 µM | K562 2.56 µM | KM12 4.4 µM | LOX IMVI 3.1 µM | M14 2.12 µM | MCF7 3.33 µM | MDA-MB-231 3.06 µM | MDA-MB-435 2.58 µM | MDA-N 2.7 µM | Malme-3M 1.82 µM | NCI-H226 7.67 µM | NCI-H23 4.61 µM | NCI-H460 4.36 µM | NCI/ADR-RES 3.31 µM | OVCAR-3 1.68 µM | OVCAR-4 5 µM | OVCAR-8 2.03 µM | PC-3 4.55 µM | RPMI-8226 2.85 µM | SF-268 2.95 µM | SF-295 11.4 µM | SF-539 2.87 µM | SK-MEL-28 7.83 µM | SK-MEL-2 3.72 µM | SK-OV-3 13.2 µM | SN12C 2.33 µM | SNB-19 14.8 µM | SR 1.3 µM | SW-620 2.14 µM | T47D 2.83 µM | TK-10 6.71 µM | U-251 3.33 µM | UACC-257 13.4 µM | UACC-62 10.9 µM | UO-31 1.94 µM
2.44 µM: HCT-15
active: CCRF-CEM 0.782 µM | MOLT-4 1.04 µM
